Laboratory results: publication PMC6274786 (International Journal of Molecular Sciences, 2018)

Test system: HEK-293 cell line
Assay: Antiproliferative assay (MTS), HEK-293
Assay type: cell-based, human
Conditions: 72 h incubation
Description: Human embryonic kidney (HEK)-293 cell line (ATCC CRL-1573) was kindly donated by Prof. Dr. […] (Pharmaceutical Institute, Pharmaceutical Chemistry I, University of Bonn). Hepatoma HepG2 (ATCC HB-8065) cell line was kindly donated by the Department of Pharmacological Screening, Jagiellonian University Medical College. The cell cultures' growth conditions in presence of H3R antagonist 4 were applied as described before. The cells' viability was assessed after 72 h of incubation with H3R antagonist and the following references: doxorubicin (Sigma-Aldrich) and carbonyl cyanide 3-chlorophenylhydrazone (CCCP) (Sigma-Aldrich). CellTiter 96® AQueous non-radioactive cell proliferation assay (MTS) was purchased from Promega® and added to each well in the volume of 20 μL. The cells were then incubated for 2-5 h. The microplate reader EnSpire (PerkinElmer Ltd., Waltham, MA, USA) was used to measure the absorbance at 490 nm.

## COc1cccc2c1C(=O)c1c(O)c3c(c(O)c1C2=O)C[C@@](O)(C(=O)CO)C[C@@H]3O[C@H]1C[C@H](N)[C@H](O)[C@H](C)O1 [DX, doxorubicin]
  concentration with significant decrease of HEK-293 proliferation/viability: 1 µM
